{"source": "patent US20250344698A1", "about": "“A METHOD OF CONTROLLING WEEDS” (SYNGENTA CROP PROTECTION AG, priority 2022, published 2025)", "tested_on": "A. tuberculatus, about 60-70% of which contain the ΔG210 mutation", "assay": "Field trial, Illinois USA, visual % weed control", "format": "in vivo, Amaranthus tuberculatus", "conditions": "visually assessed 14 days after application", "data": [{"smiles": "COC(=O)CCNC(=O)C(C)Sc1cc(-n2c(=O)cc(C(F)(F)F)n(C)c2=O)c(F)cc1Cl", "note": "(stereo not drawn) [Tiafenacil]", "values": [{"measurement": "Control (%)", "setting": "use rate 50 g ai/ha", "value": 33, "unit": "%"}, {"measurement": "Control (%)", "setting": "use rate 100 g ai/ha", "value": 30, "unit": "%"}, {"measurement": "Control (%)", "setting": "use rate 150 g ai/ha", "value": 33, "unit": "%"}]}]}
